The source of these data is patent publication US12495798B2, “Nicotinamide compound and herbicidal composition comprising compound” (KOREA RESEARCH INSTITUTE OF CHEMICAL TECHNOLOGY, priority 2019, dated 2025).

Holding throughout (format): in vivo
In data set [1] the test system is sorghum. Briefly: Herbicidal activity test against upland field weeds (foliar treatment test). The arrangement: key to Foliar treatment herbicidal activity, Sorghum: 0 (no control); 100 (complete control). The settings on record: 50 g ai/ha, scale 0-100; for plant injury at 50 g/ha: Sorghum. The essentials: (§1)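 Weeds were raised from seed or rootstocks in horticultural soil in a greenhouse (30±5° C., 14/10 h light/dark), then foliage was hand-sprayed with compound at 50 or 75 g a.i./ha in 50% acetone with 0.1% Tween-20. Control was scored visually 0–100 against untreated plants after 14 days, or 21 if needed.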

Data set [2] deals with crabgrass. Described as above. Also on record: key to Foliar treatment herbicidal activity, Crabgrass: 0 (no control); 100 (complete control). The settings on record: 50 g ai/ha, scale 0-100; for pest or weed control at 50 g/ha: Digitaria sanguinalis. The essentials: as §1
A further data set has as its system indian jointvetch. Described as above. The arrangement: key to Foliar treatment herbicidal activity, Indian jointvetch: 0 (no control); 100 (complete control). The settings on record: 50 g ai/ha, scale 0-100. The essentials: as §1
The next data set deals with velvetleaf. The data set is described as above. The arrangement: key to Foliar treatment herbicidal activity, velvet leaf: 0 (no control); 100 (complete control). The conditions noted are these: 50 g ai/ha; for pest or weed control at 50 g/ha: Abutilon theophrasti, scale 0-100, read-out: Foliar treatment herbicidal activity, velvet leaf; for Foliar treatment herbicidal activity, velvet leaf: scale 0-100. The essentials:
as §1

In data set [3] the test system is sorghum. Briefly: Herbicidal activity test against upland field weeds (soil treatment test). The arrangement: key to Soil treatment herbicidal activity, Sorghum: 0 (no control); 100 (complete control). The conditions noted are these: 50 g ai/ha, scale 0 (no control) to 100 (complete control); for plant injury at 50 g/ha: Sorghum. The essentials: (§2)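 Pre-emergence test: seeds or rootstocks were sown in fertilized sandy loam, and the next day the soil surface was sprayed with compound at 50 or 75 g a.i./ha in 50% acetone/0.1% Tween-20. Plants were grown in a greenhouse (30±5 °C, 14/10 h light/dark), then visually scored 0–100 against untreated at 14 d (21 d if needed).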

A further data set has as its system barnyard grass. The description is as above. Also on record: key to Soil treatment herbicidal activity, barnyard grass: 0 (no control); 100 (complete control). The settings on record: 50 g ai/ha, scale 0 (no control) to 100 (complete control). The essentials: as §2
Another data set has as its system quack grass. The data set is described as above. The settings on record: 50 g ai/ha, scale 0 (no control) to 100 (complete control). The arrangement: key to Soil treatment herbicidal activity, quack grass: 0 (no control); 100 (complete control). The essentials: as §2
The next data set deals with fall panicum. Described as above. Also on record: key to Soil treatment herbicidal activity, Fall panicum: 0 (no control); 100 (complete control). The settings on record: 50 g ai/ha, scale 0 (no control) to 100 (complete control). The essentials: as §2
Another data set concerns corn. Briefly: Phytotoxicity test for field crops (soil treatment test). The arrangement: key: 0 (no harm); 9 (complete withered). Put shortly:
(§3)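 Applied as a soil treatment one day after sowing, at final rates of 19˜300 g a.i./ha. Damage is graded visually (0 = no harm, 9 = complete withered) compared with untreated control, 10 and 20 days after treatment.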

The subject of another data set is cotton. The data set is described as above. Also on record: key: 0 (no harm); 9 (complete withered). Put shortly:
as §3

A further data set concerns rice. The data set is described as above. The arrangement: key: 0 (no harm); 9 (complete withered). Put shortly:
as §3

The subject of the next data set is soybean. The description is as above. Also on record: key: 0 (no harm); 9 (complete withered). Put shortly: as §3
Another data set has as its system wheat. Described as above. The arrangement: key: 0 (no harm); 9 (complete withered). The essentials:
as §3

Data set [4] concerns crabgrass. Nature of the data set: Herbicidal activity test against upland field weeds (soil treatment test). The conditions noted are these: 50 g ai/ha, scale 0 (no control) to 100 (complete control). The arrangement: key to Soil treatment herbicidal activity, Crabgrass: 0 (no control); 100 (complete control). The essentials: as §2
[5] abbreviates: 50 g ai/ha, Corn (10 days after treatment).
The mark [6] stands for this setting: 50 g ai/ha, Corn (20 days after treatment).
Where [7] appears, read: 100 g ai/ha, Corn (10 days after treatment).
The mark [8] stands for this setting: 100 g ai/ha, Corn (20 days after treatment).
Where [9] appears, read: 50 g ai/ha, Cotton (10 days after treatment).
Setting [10] is: 50 g ai/ha, Cotton (20 days after treatment).
The mark [11] stands for this setting: 100 g ai/ha, Cotton (10 days after treatment).
Where [12] appears, read: 100 g ai/ha, Cotton (20 days after treatment).
[13] abbreviates: 50 g ai/ha, Rice (10 days after treatment).
Where [14] appears, read: 50 g ai/ha, Rice (20 days after treatment).
Setting [15] is: 100 g ai/ha, Rice (10 days after treatment).
[16] abbreviates: 100 g ai/ha, Rice (20 days after treatment).
[17] abbreviates: 50 g ai/ha, Soybean (10 days after treatment).
Setting [18] is: 100 g ai/ha, Soybean (10 days after treatment).
Setting [19] is: 100 g ai/ha, Soybean (20 days after treatment).
Setting [20] is: 50 g ai/ha, Wheat (10 days after treatment).
[21] abbreviates: 50 g ai/ha, Wheat (20 days after treatment).
Where [22] appears, read: 100 g ai/ha, Wheat (10 days after treatment).
The mark [23] stands for this setting: 100 g ai/ha, Wheat (20 days after treatment).

As to `Cn1nnnc1NC(=O)c1ccc(C(F)(F)F)nc1OCc1nnnn1C(F)F` [Compound No. 1-26, 2-((1-(difluoromethyl)-1H-tetrazol-5-yl)methoxy)-N-(1-methyl-1H-tetrazol-5-yl)-6-(trifluoromethyl)nicotinamide], the plant injury at 50 g/ha amounted to 70% with sorghum [1] and 30% in the data set on sorghum [3]. Besides, the pest or weed control at 50 g/ha with crabgrass [2] amounted to 98%; with indian jointvetch, 70%; with velvetleaf, 50%; in the data set on fall panicum (Panicum dichotomiflorum) it was 60%. The “Soil treatment herbicidal activity, barnyard grass” value with barnyard grass stood at 100. Also, the “Soil treatment herbicidal activity, quack grass” value in the data set with quack grass worked out at 0. The “Soil treatment phytotoxicity, Corn” value in the data set on corn (setting [5]) worked out at 0; in the data set on corn (setting [6]) it was 0; with corn (setting [7]), 1; with corn (setting [8]), 1. In addition, the “Soil treatment phytotoxicity, Cotton” value with cotton (setting [9]) was 1; in the data set with cotton (setting [10]), 0; with cotton (setting [11]), 1; with cotton (setting [12]), 1. In addition, the “Soil treatment phytotoxicity, Rice” value was 1 in the data set with rice (setting [13]), 8 with rice (setting [14]), 3 with rice (setting [15]) and 9 in the data set on rice (setting [16]). For the same molecule, the results for the “Soil treatment phytotoxicity, Soybean” value in the data set on soybean (setting [17]), with soybean (setting [18]) and with soybean (setting [19]) were 0, 0 and 4, respectively. Besides, the “Soil treatment phytotoxicity, Wheat” value in the data set on wheat (setting [20]), in the data set on wheat (setting [21]), with wheat (setting [22]) and in the data set on wheat (setting [23]) was 0 throughout.

With `Cn1cnc(COCc2nc(C(F)F)ccc2C(=O)Nc2nnnn2C)n1` [Compound No. 2-85], the “Foliar treatment herbicidal activity, Sorghum” value in the data set with sorghum [1] is given as 5. In addition, the “Foliar treatment herbicidal activity, Crabgrass” value in the data set with crabgrass [2] is 60. Besides, the “Foliar treatment herbicidal activity, Indian jointvetch” value in the data set with indian jointvetch amounted to 97. For the same molecule, the “Foliar treatment herbicidal activity, velvet leaf” value with velvetleaf was 100. The “Soil treatment herbicidal activity, Sorghum” value with sorghum [3] was 0. Also, the “Soil treatment herbicidal activity, barnyard grass” value with barnyard grass is 0. The “Soil treatment herbicidal activity, Crabgrass” value in the data set on crabgrass [4] was found to be 0. The “Soil treatment herbicidal activity, Fall panicum” value in the data set on fall panicum amounted to 20. Also, the “Soil treatment phytotoxicity, Corn” value in the data set with corn (setting [5]), in the data set on corn (setting [6]), in the data set on corn (setting [7]) and with corn (setting [8]) was 0 each time. Further, the “Soil treatment phytotoxicity, Cotton” value amounted to 0 with cotton (setting [9]), 0 in the data set on cotton (setting [10]), 2 in the data set with cotton (setting [11]) and 0 in the data set with cotton (setting [12]). In addition, the “Soil treatment phytotoxicity, Rice” value is given as 0 with rice (setting [13]), 0 in the data set on rice (setting [14]), 1 in the data set on rice (setting [15]) and 0 in the data set with rice (setting [16]). In addition, the “Soil treatment phytotoxicity, Soybean” value in the data set on soybean (setting [17]) was determined as 2; with soybean (50 g ai/ha, Soybean (20 days after treatment)) it was 0; in the data set on soybean (setting [18]), 3; in the data set with soybean (setting [19]), 0. In addition, the “Soil treatment phytotoxicity, Wheat” value with wheat (setting [20]), in the data set with wheat (setting [21]), with wheat (setting [22]) and in the data set with wheat (setting [23]) was 0 each time.

For the molecule `Cn1nnc(CSCc2nc(C(F)(F)F)ccc2C(=O)Nc2nnnn2C)n1` [Compound No. 2-102, N-(1-methyl-1H-tetrazol-5-yl)-2-((((2-methyl-2H-tetrazol-5-yl)methyl)thio)methyl)-6-(trifluoromethyl)nicotinamide], the plant injury at 50 g/ha was 70% in the data set with sorghum [1] and 20% in the data set on sorghum [3]. The “Foliar treatment herbicidal activity, Crabgrass” value in the data set on crabgrass [2] was found to be 100. In addition, the results for the pest or weed control at 50 g/ha with indian jointvetch, in the data set on velvetleaf and in the data set with barnyard grass (Echinochloa crus-galli) were 98%, 80% and 98%, respectively. Besides, in the data set with quack grass, the “Soil treatment herbicidal activity, quack grass” value is given as 0. Further, the “Soil treatment herbicidal activity, Crabgrass” value in the data set with crabgrass [4] is recorded as 100. For the same molecule, in the data set with fall panicum, the “Soil treatment herbicidal activity, Fall panicum” value was determined as 100.

Regarding `Cn1nnc(CS(=O)(=O)Cc2nc(C(F)(F)F)ccc2C(=O)Nc2nnnn2C)n1` [Compound No. 2-105, N-(1-methyl-1H-tetrazol-5-yl)-2-((((2-methyl-2H-tetrazol-5-yl)methyl)sulfonyl)methyl)-6-(trifluoromethyl)nicotinamide], the plant injury at 50 g/ha in the data set with sorghum [1] came out at 20%. Moreover, the pest or weed control at 50 g/ha in the data set on crabgrass [2] turned out to be 30%; in the data set on indian jointvetch, 95%; in the data set on velvetleaf it was 90%. Further, the “Soil treatment herbicidal activity, Sorghum” value with sorghum [3] stood at 0. Moreover, in the data set on barnyard grass, the “Soil treatment herbicidal activity, barnyard grass” value turned out to be 0. In the data set on quack grass, the “Soil treatment herbicidal activity, quack grass” value is on record as 0. Besides, the “Soil treatment herbicidal activity, Crabgrass” value in the data set on crabgrass [4] was 0. For the same molecule, the “Soil treatment herbicidal activity, Fall panicum” value in the data set on fall panicum is given as 0.

Take `COC(=O)OC(C)N(C(=O)c1ccc(C(F)(F)F)nc1COCc1nnn(C)n1)c1nnnn1C` (stereo not drawn) [Compound No. 4-4, methyl(1-(N-(1-methyl-1H-tetrazol-5-yl)-2-(((2-methyl-2H-tetrazol-5-yl)methoxy)methyl)-6-(trifluoromethyl)nicotinamido)ethyl)carbonate]: the “Foliar treatment herbicidal activity, Sorghum” value in the data set with sorghum [1] is 100. In addition, the “Foliar treatment herbicidal activity, Crabgrass” value with crabgrass [2] came out at 98. Further, the “Foliar treatment herbicidal activity, Indian jointvetch” value in the data set on indian jointvetch was found to be 100. Also, the “Foliar treatment herbicidal activity, velvet leaf” value with velvetleaf worked out at 100. Also, in the data set on sorghum [3], the “Soil treatment herbicidal activity, Sorghum” value was 0. Also, in the data set with barnyard grass, the “Soil treatment herbicidal activity, barnyard grass” value came out at 0. In addition, in the data set with quack grass, the “Soil treatment herbicidal activity, quack grass” value came to 0. In addition, the “Soil treatment herbicidal activity, Crabgrass” value in the data set with crabgrass [4] was 0.

For `CCOC(=O)OC(C)N(C(=O)c1ccc(C(F)(F)F)nc1COCc1nnn(C)n1)c1nnnn1C` (stereo not drawn) [Compound No. 4-8, ethyl(1-(N-(1-methyl-1H-tetrazol-5-yl)-2-(((2-methyl-2H-tetrazol-5-yl)methoxy)methyl)-6-(trifluoromethyl)nicotinamido)ethyl)carbonate], the “Foliar treatment herbicidal activity, Sorghum” value in the data set on sorghum [1] is listed as 70. The “Foliar treatment herbicidal activity, Crabgrass” value with crabgrass [2] is 98. The “Foliar treatment herbicidal activity, Indian jointvetch” value with indian jointvetch is recorded as 100. Also, in the data set with velvetleaf, the “Foliar treatment herbicidal activity, velvet leaf” value is on record as 100. The “Soil treatment herbicidal activity, Sorghum” value with sorghum [3] stood at 70. In the data set with barnyard grass, the “Soil treatment herbicidal activity, barnyard grass” value was 100. Also, the “Soil treatment herbicidal activity, quack grass” value with quack grass is 0. Further, the “Soil treatment herbicidal activity, Crabgrass” value in the data set on crabgrass [4] was found to be 100. Also, in the data set on fall panicum, the “Soil treatment herbicidal activity, Fall panicum” value worked out at 0.
